The values that follow come from publication PMC8343220, “The selectivity of α‐adrenoceptor agonists for the human α1A, α1B, and α1D‐adrenoceptors” (Pharmacology Research & Perspectives, 2021).

Usually Kd stands for the equilibrium constant for the complex coming apart. For orientation: EC50 means the concentration that produces a half-maximal response.

For assay [1], the target named is T1, human α1A‐adrenoceptor (Homo sapiens, UniProt P35348).
T1 construct: expressed in transfected cells; host or cells: CHO-K1
T1 sequence (P35348 1-466): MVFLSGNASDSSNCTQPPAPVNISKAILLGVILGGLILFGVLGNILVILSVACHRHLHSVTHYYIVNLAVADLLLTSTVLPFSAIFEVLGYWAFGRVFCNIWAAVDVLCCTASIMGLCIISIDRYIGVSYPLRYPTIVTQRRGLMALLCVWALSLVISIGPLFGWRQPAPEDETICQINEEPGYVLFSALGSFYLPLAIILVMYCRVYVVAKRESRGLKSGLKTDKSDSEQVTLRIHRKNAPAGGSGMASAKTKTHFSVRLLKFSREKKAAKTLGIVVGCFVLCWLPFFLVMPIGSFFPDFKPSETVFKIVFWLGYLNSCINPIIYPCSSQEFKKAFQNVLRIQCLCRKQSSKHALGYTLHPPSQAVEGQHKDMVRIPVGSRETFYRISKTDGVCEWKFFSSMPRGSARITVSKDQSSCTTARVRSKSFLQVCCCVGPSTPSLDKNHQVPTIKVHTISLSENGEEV
Briefly: Intracellular free calcium mobilization, CHO‐α1A cells. The class given is cell-based. For orientation: A change in cytosolic calcium serves as a functional read-out for many receptors and channels.

Assay [2] addresses T2, human α1B‐adrenoceptor (Homo sapiens, UniProt P35368).
T2 construct: expressed in transfected cells; host or cells: CHO-K1
T2 sequence (P35368 1-520): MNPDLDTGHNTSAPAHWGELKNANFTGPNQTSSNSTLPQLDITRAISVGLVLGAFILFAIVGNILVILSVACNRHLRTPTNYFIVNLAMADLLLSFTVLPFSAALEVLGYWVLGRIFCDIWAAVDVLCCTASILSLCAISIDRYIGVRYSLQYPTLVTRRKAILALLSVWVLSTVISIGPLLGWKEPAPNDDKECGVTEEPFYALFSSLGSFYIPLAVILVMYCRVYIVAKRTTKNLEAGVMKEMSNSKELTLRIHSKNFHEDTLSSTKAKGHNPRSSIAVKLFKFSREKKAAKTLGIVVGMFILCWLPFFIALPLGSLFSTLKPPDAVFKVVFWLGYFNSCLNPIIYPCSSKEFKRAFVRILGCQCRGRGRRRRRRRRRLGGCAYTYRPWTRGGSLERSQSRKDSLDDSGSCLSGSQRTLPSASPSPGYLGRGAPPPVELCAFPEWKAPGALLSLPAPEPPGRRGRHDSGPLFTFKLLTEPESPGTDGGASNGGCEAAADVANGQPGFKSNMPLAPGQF
Briefly: Intracellular free calcium mobilization, CHO‐α1B cells. It is filed as cell-based.

Assay [3] concerns the target T3, human α1D‐adrenoceptor (full length) (Homo sapiens, UniProt P25100).
T3 construct: human α1D‐adrenoceptor (full length) were used; expressed in transfected cells; host or cells: CHO-K1
T3 sequence (P25100 1-572): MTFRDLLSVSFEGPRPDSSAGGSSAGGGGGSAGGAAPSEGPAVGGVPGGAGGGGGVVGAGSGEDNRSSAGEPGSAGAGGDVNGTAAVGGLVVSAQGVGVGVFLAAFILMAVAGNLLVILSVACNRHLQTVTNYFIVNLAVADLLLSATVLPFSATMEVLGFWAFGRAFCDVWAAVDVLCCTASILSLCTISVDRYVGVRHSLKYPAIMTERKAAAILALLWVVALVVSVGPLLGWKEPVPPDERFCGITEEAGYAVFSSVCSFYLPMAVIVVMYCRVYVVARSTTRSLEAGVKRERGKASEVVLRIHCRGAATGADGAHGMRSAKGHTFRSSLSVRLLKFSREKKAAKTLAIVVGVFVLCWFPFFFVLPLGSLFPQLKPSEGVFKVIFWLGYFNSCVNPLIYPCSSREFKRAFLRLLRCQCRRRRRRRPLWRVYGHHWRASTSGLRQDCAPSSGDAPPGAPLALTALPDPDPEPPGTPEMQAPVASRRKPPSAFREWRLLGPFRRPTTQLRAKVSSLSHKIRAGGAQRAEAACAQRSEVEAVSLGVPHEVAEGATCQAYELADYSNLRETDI
Briefly: Intracellular free calcium mobilization, CHO‐α1D cells. The class given is cell-based.

In assay [4] the target is T1, human α1A‐adrenoceptor. Briefly: ERK1/2‐phosphorylation (Surefire Alphascreen), CHO‐α1A cells. The class given is cell-based. In general terms: Bead proximity is the source of the signal in Alpha formats.
Assay [5] deals with T2, human α1B‐adrenoceptor. Briefly: ERK1/2‐phosphorylation (Surefire Alphascreen), CHO‐α1B cells. The class given is cell-based.
Assay [6] concerns the target T3, human α1D‐adrenoceptor (full length). Description: ERK1/2‐phosphorylation (Surefire Alphascreen), CHO‐α1D cells. The class given is cell-based.
The subject of assay [7] is parental CHO cell line without any transfected receptors. Briefly: ERK1/2‐phosphorylation, parent CHO cells without transfected receptors. The conditions noted are these: CHO cells without transfected receptors; maximal response as % of PDBu (10μM) response; mean ± s.e.m. The class given is cell-based, Chinese hamster.
For assay [8], the target named is T1, human α1A‐adrenoceptor. Briefly: ^3H‐cAMP accumulation, CHO‐α1A cells. It is filed as cell-based. The conditions noted are these: CHO‐α1A cells; for cAMP accumulation % forskolin: % of 10 µM forskolin response. A general note: Changes in cAMP serve as a functional read-out for many G protein-coupled receptors.
For assay [9], the target named is T2, human α1B‐adrenoceptor. Description: ^3H‐cAMP accumulation, CHO‐α1B cells. The class given is cell-based. The conditions noted are these: CHO‐α1B cells; for cAMP accumulation % forskolin: % forskolin maximum response.
The test system of assay [10] is parental CHO cell line without any transfected receptors. Description: Forskolin‐stimulated cAMP accumulation, parent CHO cells without transfected receptors. It is filed as cell-based, Chinese hamster. The conditions noted are these: CHO cells without transfected receptors; in presence of forskolin.
The target in assay [11] is T1, human α1A‐adrenoceptor. Briefly: ^3H‐prazosin whole‐cell radioligand binding, CHO‐α1A cells.
The target of assay [12] is T1, human α1A‐adrenoceptor. Description: ^3H‐cAMP accumulation in the presence of 10 μM forskolin, CHO‐α1A cells. The class given is cell-based.
Assay [13] deals with T2, human α1B‐adrenoceptor. Briefly: ^3H‐prazosin whole‐cell radioligand binding, CHO‐α1B cells.
Assay [14] addresses T3, human α1D‐adrenoceptor (full length). Description: ^3H‐prazosin whole‐cell radioligand binding, CHO‐α1D cells.
In assay [15] the target is T2, human α1B‐adrenoceptor. Briefly: ^3H‐cAMP accumulation in the presence of 10 μM forskolin, CHO‐α1B cells. The class given is cell-based. Particulars: CHO‐α1B cells; in presence of forskolin.
Where [16] appears, read: CHO‐α1A cells, maximal response as % of 10 µM ionomycin.
The mark [17] stands for this setting: CHO‐α1B cells, maximal response as % of 10 µM ionomycin response.
The mark [18] stands for this setting: CHO‐α1D cells, response at 100 µM ligand (no EC50 given).
The mark [19] stands for this setting: CHO‐α1A cells, % of 10 µM PDBu, ^a bi‐phasic: initial stimulatory part.
Setting [20] is: CHO‐α1B cells, maximal response as % PDBu response, for bi‐phasic responses the initial stimulatory part.

Read-outs that look alike come from different tables or passages of the source.

`c1ccc2c(c1)OCC(C1=NCCN1)O2` (stereo not drawn) [Idazoxan]: the figures for the “Intracellular calcium release % ionomycin” value on human α1A‐adrenoceptor [1] (setting [16]) and at human α1B‐adrenoceptor [2] (setting [17]) were 25.9 ± 2.1% and 25.7 ± 3.0%, respectively. For the same molecule, in assay [3] (setting [18]), the “Intracellular calcium release % Ionomycin at 100 µM” value came to 5.7 ± 0.7%. Moreover, the “ERK1/2‐phosphorylation % PDBu” value on human α1A‐adrenoceptor [4] (setting [19]) amounted to 64.9 ± 2.4%; on human α1B‐adrenoceptor [5] (setting [20]) it was 31.3 ± 2.2%. Moreover, in assay [6] (setting [18]), the “ERK1/2‐phosphorylation % PDBu at 100 µM” value turned out to be 2.2 ± 1.3%. In [7], the “ERK1/2-phosphorylation % PDBu” value is given as “No response”. For the same molecule, the “cAMP accumulation % forskolin” value on human α1A‐adrenoceptor [8] worked out at 2.6 ± 0.4%; on human α1B‐adrenoceptor [9], 2.4 ± 0.3%. In addition, the “cAMP accumulation (in presence of forskolin) Log EC50” value in [10] was “No response”.

For the molecule `NC[C@H](O)c1ccc(O)c(O)c1` [Noradrenaline], the “Intracellular calcium release % ionomycin” value at human α1A‐adrenoceptor [1] (setting [16]) came out at 62.2 ± 3.0%; on human α1B‐adrenoceptor [2] (setting [17]) it was 62.5 ± 1.2%; in assay [3] (CHO‐α1D cells, maximal response as % of 10 µM ionomycin), 26.6 ± 3.6%. Moreover, the “ERK1/2‐phosphorylation % PDBu” value was 84.2 ± 8.4% on human α1A‐adrenoceptor [4] (setting [19]); 75.0 ± 8.8% on human α1B‐adrenoceptor [5] (setting [20]); 30.0 ± 5.3% in [6] (CHO‐α1D cells, maximal response as % of PDBu). The “ERK1/2-phosphorylation % PDBu” value in assay [7] was “No response”. The “cAMP accumulation % forskolin” value stood at 167.3 ± 13.3% on human α1A‐adrenoceptor [8] and 155.5 ± 7.4% at human α1B‐adrenoceptor [9]. Further, the “cAMP accumulation (in presence of forskolin) Log EC50” value in [10] is “No response”.

For the molecule `CNCC(O)c1ccc(O)cc1` (stereo not drawn) [Synephrine], on human α1A‐adrenoceptor [11], binding was put at a Kd of 55 µM. Moreover, the EC50 at human α1A‐adrenoceptor [1] was 0.219 µM; on human α1A‐adrenoceptor [4], 0.603 µM; on human α1A‐adrenoceptor [12], 7.08 µM. Further, the “Intracellular calcium release % ionomycin” value on human α1A‐adrenoceptor [1] worked out at 55.4 ± 1.9%; on human α1B‐adrenoceptor [2], 57.5 ± 1.9%; in assay [3], 16.3 ± 2.9%. Moreover, the “ERK1/2‐phosphorylation % PDBu” value at human α1A‐adrenoceptor [4] is recorded as 87.4 ± 8.6%; at human α1B‐adrenoceptor [5] it was 95.1 ± 8.7%; in [6], 14.5 ± 2.8%. Moreover, the “ERK1/2-phosphorylation % PDBu” value in [7] is “No response”. In addition, the “cAMP accumulation % forskolin at 100 µM” value stood at 25.4 ± 3.4% at human α1A‐adrenoceptor [8] (response at 100 μM ligand, no EC50 obtained) and 23.2 ± 2.5% on human α1B‐adrenoceptor [9] (response at 100 µM ligand (no EC50 given)). Further, the “cAMP accumulation (in presence of forskolin) Log EC50” value in assay [10] is on record as “No response”.

Consider `Nc1cc(Cl)c(N=C2NCCN2)c(Cl)c1` [para‐amino‐clonidine], for which the “Log KD α1A, ^3H‐prazosin whole cell binding” value on human α1A‐adrenoceptor [11] was −6.23 ± 0.03. Moreover, on human α1B‐adrenoceptor [13], the “Log KD α1B, ^3H‐prazosin whole cell binding” value is listed as −5.17 ± 0.06. On human α1B‐adrenoceptor [13], the “Log KD, ^3H‐prazosin binding” value was −5.17. Further, the “3H‐prazosin binding Log KD” value in [14] was −5.39. Also, the “Log KD α1D, ^3H‐prazosin whole cell binding” value in assay [14] is given as −5.39 ± 0.16. The “Intracellular calcium release % ionomycin” value on human α1A‐adrenoceptor [1] is given as 52.0 ± 2.8%; at human α1B‐adrenoceptor [2], 33.7 ± 2.4%; in assay [3], “No response”. In addition, the results for the “Intracellular calcium release Log EC50” value (on human α1A‐adrenoceptor [1]; at human α1B‐adrenoceptor [2]; in assay [3]) were −8.70 ± 0.09, −7.79 ± 0.05 and “No response”, respectively. Also, the “ERK1/2‐phosphorylation % PDBu” value at human α1A‐adrenoceptor [4] was 84.5 ± 4.9%; at human α1B‐adrenoceptor [5], 32.8 ± 6.9%; in assay [6] it was “No response”. The “cAMP accumulation Log EC50” value is on record as −6.76 ± 0.03 on human α1A‐adrenoceptor [8] (5 h) and −7.48 ± 0.43 on human α1B‐adrenoceptor [9]. The “cAMP accumulation % forskolin” value on human α1A‐adrenoceptor [8] worked out at 26.6 ± 3.2%; at human α1B‐adrenoceptor [9], 2.5 ± 0.6%. Also, the “cAMP accumulation (in presence of forskolin) Log EC50” value at human α1A‐adrenoceptor [12] (CHO‐α1A cells, 10 μM forskolin) was −7.36 ± 0.05; on human α1B‐adrenoceptor [15], −7.31 ± 0.11.
